Entries after “also recorded” stand apart in the source; their conditions may differ.
What was measured:
leukocytes = details: prior work; cited from earlier work
RAW 264.7 cells [1] = experiment: WST-1 cytotoxicity/viability assay; assay type: cell-based, mouse; details: 50, 100, SOO, and 1000 ng/ml, 24 h
Protocol: RAW 264.7 cells were treated with NorBIRT for the indicated concentrations (50, 100, SOO, and 1000 ng/ml) for 24 h. Cytotoxicity was analyzed using an WST-1 assay. The WST-1 conversion assay was based on the mitochondrial function of intact cells.

LFA-1 = experiment: LPS-stimulated LFA-1 protein expression (ELISA, cell lysates) in RAW 264.7 cells; assay type: cell-based, mouse; details: NorBIRT 500 ng/ml 2 and 4 h, LPS 500 ng/ml 24 h
Protocol: Further, RAW 264.7 cells were pretreated with NorBIRT (500 ng/ml) for 2 and 4 h before being incubated with LPS (500 ng/ml). After 24 h of incubation, LFA-1 was measured in celllysates by ELISA.

IL-10 = IL-10 protein (ELISA) in LPS-stimulated RAW 264.7 cells; assay type: cell-based, mouse; details: co-incubation with NorBIRT and LPS 500 ng/ml
Protocol: Protein levels of Il-10 were evaluated using ELISA.
(§1) Given the intriguing profile of NorBIRT's actions on reversing allodynia, we examined whether NorBIRT additionally altered proinflammatory cytokine levels. […] Intracellular IL-1b requires enzymatic cleavage to produce the mature released form. […] Thus NorBIRT is blocking the release of mature IL-1b. […] So, NorBIRT may additionally have anti-inflammatory properties.

[2] = test system: 111In-leukocytes in lumbosacral spinal canal of CCI rats; experiment: SPECT/CT imaging of 111In-labeled leukocyte accumulation in lumbosacral spinal canal; assay type: in vivo, rat; details: NorBIRT injected vs saline
Description: Initially, we determined that peripheral leukocytes accumulate in spinal regions that are necessary for pain signaling. We used a small animal SPECT/CT imaging system (single-photon emission computerized tomography) which was very similar to PET imaging, but which had better resolution. […] Blocking spinal leukocyte accumulation may be a novel therapeutic target promising for future clinical applications.
We next investigated whether peripheral immune cells in addition to spinal glia could participate in ongoing pain changes. First, it was determined whether leukocytes could extravasate into the lumbosacral region during ongoing neuropathy. Peritoneal leukocytes from same-strain donor rats were collected and labeled with a gamma-emitting radio-isotope […] and injected i.v. into either CCI or sham treated rats. Biodistributions were examined using a small animal SPECT/.
We quantified radioactivity—in uCis—in very discrete spinal regions of interest related to incoming sciatic pain information. We determined discrete differences in the levels of uCi activity within specific Lumbar vertebra and from the underlying L4-L6 spinal canal, even the associated intervertebral disc regions. We analyzed the L4-L6 spinal canal

IL-1β = IL-1β (ELISA) in supernatants and cell lysates of LPS-stimulated RAW 264.7 cells; assay type: cell-based, mouse; details: NorBIRT 500 ng/ml pretreatment, LPS 500 ng/ml
Protocol: Additionally, RAW 264.7 cells were pretreated with 500 ng/ml of NorBIRT and were stimulated with LPS (500 ng/ml). The levels of IL-1β were measured by ELISA, (A) supernatants and (B) celllysates. […] FIG. 22 illustrates that NorBIRT inhibits LPS-stimulated expression of IL-1β in RAW 264.7 cells.
as §1

[3] = test system: RAW 264.7 macrophage cells; experiment: LPS-induced NO production in RAW 264.7 macrophage cells; assay type: cell-based, mouse; details: NorBIRT 500 ng/ml pre-treatment 1, 2, 4 h; LPS 500 ng/ml 24 h
Protocol: The ability of NorBIRT to inhibit LPS-induced NO production in RAW 264.7macrophage cells was tested. Cells were pre-treated with NorBIRT (500 ng/ml) for 1, 2, and 4 h then exposed to LPS (500 ng/ml) for 24 h.

CCL2 = experiment: LPS-stimulated CCL2 production in RAW 264.7 cells; assay type: cell-based, mouse; details: NorBIRT 500 ng/ml 1 h; LPS 500 ng/ml 24 h; supernatants and cell lysates
Protocol: RAW 264.7 cells were also pretreated with NorBIRT (500 ng/ml) for 1 h before being incubated with LPS (500 ng/ml) for 24 h. The culture supernatant was analyzed for CCL2 production in both, supernatants and celllysates.

[4] = test system: rats with sciatic nerve chronic constriction injury (CCI); experiment: Sciatic nerve chronic constriction injury (CCI) allodynia, von Frey test; assay type: in vivo, rat; details: for reversal of CCI-induced mechanical allodynia: 10 days after CCI
Description: Glial (astrocytes, microglia, satellite & Schwann) cells are recognized as contributing to the development and maintenance of neuropathic pain [86]. Glia are well-known to serve a number of housekeeping functions for healthy neuronal communication. […] Glia have receptors for and are activated by invading pathogens, neuropeptides and neurotransmitters. Once activated, glia can contribute to persistent pathological pain by responding to and releasing factors that act on both neurons and surrounding glia. Classic immune signals include the pro-inflammatory cytokines, interleukin-1 (IL-1β) and tumor necrosis factor-alpha (TNF-α), and chemokines such as CCL2 [139, 142]. Chronic constriction injury (CCI) is a well-characterized animal model that involves both inflammation and trauma around one sciatic nerve. Loose sciatic nerve ligation of 4 sutures produces allodynia in hind paws of rodents. Allodynia in rodents is often measured by hind paw responses to low threshold mechanical stimuli (von Frey test). Clinically, allodynia is well-documented as a common problem for neuropathic pain patients, and the von Frey test is a highly validated assessment tool for allodynia. Several gene therapy vector approaches for neuropathic pain control are being pursued for directed delivery to the dorsal spinal cord & DRG (the pain compartments) & to specific cell types within those compartments, such as glial cells in the DRG (satellite & Schwann cells) or astrocytes and microglia in the dorsal horn of the spinal cord, with one recent clinical trial underway.
We sought to identify the best vector system, either of the viral-based adeno-associated virus (AAV) or the non-viral DNA-based vector (plasmid DNA; pDNA), to achieve therapeutic pain control when delivered to the spinal subarachnoid space (IT). […] While successful, the viral vectors were short-lived in their effects when one considers clinical neuropathic pain control. […] While continued progress toward designing improved viral vector systems may be worthy of future exploration, the optimal vector identified for long-duration pain control during the current grant period was determined to be free pDNA encoding the IL-10 gene (FIG. 2). Behavioral pain assessment is conducted as previously described. Briefly, rats are placed in a quite, dimly lit room and allowed to habituate to the testing environment for 4 consecutive days, 1 hr/day. Baseline (BL) responses are assessed with a series of graded calibrated filaments (0.4 g-15.0 g) applied to the plantar surface of the hindpaws for 6 sec, which elicits a reliable paw withdrawal response. The pDNA-based vector used in data described here and in ‘Preliminary Data’ contains inverted terminal repeat (ITRs) palindromic nucleotide sequences that are residual components from the original AAV vector and provide additional promoter activity, albeit, somewhat weak.. Therefore ITRs would only serve to augment the transcription driven by the expression cassette. The transcriptional cassette contains the cytomegalovirus enhancer/chicken b-actin promoter (CB-actin promoter), an intronic region, the rat IL-10 gene with a spontaneous point mutation (F129S) and the SV40 polyadenylation signal region.
The animal models used in the experiments of this example extend to the well characterized & widely used model of peripheral neuropathy—sciatic nerve chronic constriction injury which combines both direct trauma plus inflammation to the sciatic nerve. When the peripheral nerves become unhealthy, neuropathic pain often ensues. This model combines both inflammation from loosely tied chromic gut ligatures that leads to a localized inflammation followed by slight constriction. In this model, spinal cord glia are activated, PICs are produced and blocking the actions of glia & PICs prevents and reverses neuropathic pain.
This stimulus elicits a paw withdrawal response. Under normal conditions, rats respond to about 10 g of pressure. […]

RAW 264.7 cells [5] = experiment: Mouse macrophage cell migration in response to CCL2; assay type: cell-based; details: recombinant mouse CCL2 (2D-100 ng/ml)
Protocol: Mouse macrophages cell migration in response to CCL2 was assessed with recombinant mouse CCL2 (2D-100 ng/ml) in RAW 264.7 cells. Latrunculin was used as a positive control to inhibit cell migration.

TNF-α = TNF-α protein (ELISA) in LPS stimulated RAW 264.7 cells; assay type: cell-based, mouse; details: NorBIRT 500 ng/ml 1 h, LPS 500 ng/ml 4 and 24 h
Protocol: In this experiment, cells were incubated with NorBIRT (500 ng/ml; 1 h) and after treatment with LPS (500 ng/ml; 4 and 24 h) the protein levels of TNF-α was evaluated by ELISA.

[6] = test system: rats with sciatic nerve chronic constriction injury (CCI); details: IT IL-10 protein 4 hr prior to IT pDNA-IL10; cited from earlier work
[7] = test system: innate immune cells (macrophage, dendritic cells); details: IT IL-10 protein 4 hr prior to IT pDNA-IL10; cited from earlier work
[8] = i.t. 10-fold higher dose of NorBIRT (Example 10)

CN1C(=O)N(c2cc(Cl)cc(Cl)c2)C(=O)[C@@]1(C)Cc1ccc(Br)cc1 [BIRT-377, reference compound]
antiproliferative and anti-migratory properties of leukocytes (leukocytes): exert antiproliferative and anti-migratory properties

C[C@@]1(Cc2ccc(Br)cc2)C(=O)N(c2cc(Cl)cc(Cl)c2)C(=O)N1CCCCCN [NorBIRT]
antiproliferative and anti-migratory properties of leukocytes (leukocytes): exert antiproliferative and anti-migratory properties
viability of RAW 264.7 cells (RAW 264.7 cells [1]): does not affect
LPS-stimulated LFA-1 protein expression (LFA-1): inhibits
IL-10 protein levels / release (IL-10): increases; also recorded: dose-dependently increased
leukocyte accumulation (uCi signal) in lumbosacral spinal canal [2]: no signal
IL-1β release / LPS-stimulated expression (supernatants) (IL-1β): reduced; also recorded: attenuated; also recorded: inhibits
intracellular IL-1β (cell lysates) (IL-1β): substantially increased
LPS-induced NO production [3]: inhibits
LPS-stimulated CCL2 production (CCL2): does not inhibit
change in allodynia ([4]; 500 ng i.v. NorBIRT vs saline, 48 and 72 hrs later): significant change; also recorded: reverses
allodynia fully returned ([4]; after i.t. NorBIRT (Example 11)): ≤ 10 days
reversal of 45-day enduring allodynia ([4]; higher dose i.t. NorBIRT on day 45): substantially reversed
reversal of allodynia ([4]; i.t. 5 ng NorBIRT vs saline (Example 10)): very modestly reversed
return of allodynia [4, 8]: ≤ 9 days
reversal of allodynia [4, 8]: substantial reversal
reversal of 10-day CCI-induced bilateral mechanical allodynia ([4]; i.t. NorBIRT vs i.t. vehicle (Example 11)): reversed
time of peak effect after injection ([4]; i.t. NorBIRT, compared to sham controls): four
effect on allodynia ([4]; i.t. higher dose 100 ng vs vehicle (Example 11)): dramatic reversal
effect on allodynia ([4]; i.t. low dose 5 ng vs vehicle (Example 11)): lacking effects
effect on allodynia ([4]; i.v. 5000 ng): attenuated allodynia bilaterally
effect on allodynia ([4]; i.v. 100 000 ng): attenuated allodynia bilaterally
dose-dependent reversal from allodynia ([4]; i.v. low dose, 5 days after injection, vs saline): did not produce
reversal of CCI-induced mechanical allodynia ([4]; i.v. low dose, second experiment): did not reverse
dose-dependent reversal from allodynia ([4]; i.v. low dose, throughout 8 days after injection, vs Sham): does not produce
reversal of CCI-induced mechanical allodynia ([4]; i.v., relatively high doses, first experiment): reverses
macrophage cell migration in response to CCL2 (RAW 264.7 cells [5]): inhibits
expression (protein levels) of TNF-α (TNF-α): attenuates

IL-1 receptor antagonist: blocks spinal cord actions of IL1; drug with short half-life
time of return of allodynia ([4]; intrathecal IL-1 receptor antagonist): ≤ 24 h
effect on allodynia ([4]; intrathecal, after CCI): completely abolishes

B1: IL-10 protein: IT IL-10 protein (without transgene) (protein, UniProt P22301 19-178, looked up)
Interleukin-10: SPGQGTQSENSCTHFPGNLPNMLRDLRDAFSRVKTFFQMKDQLDNLLLKESLLEDFKGYLGCQALSEMIQFYLEEVMPQAENQDPDIKAHVNSLGENLKTLRLRLRRCHRFLPCENKSKAVEQVKNAFNKLQEKGIYKAMSEFDIFINYIEAYMTMKIRN
long duration pain relief after IT pDNA-IL-10 [6]: prevented
cellular enrichment in surrounding CSF after IT pDNA-IL10 [7]: prevented
